According to patent US4647572A, “Iodoallyl and iodopropargyl substituted tetrazoles and anti-microbial compositions thereof” (Meiji Seika Kaisha, Ltd., priority 1982, dated 1987):
In brackets after ≈: the same amount, converted by molar mass.

Assays:
Type in all cases: cell-based
[1] = system: Trichophyton metagrophytes 530324; test: Antifungal Activity MIC (in medicinal field); settings: read-out: Minimal Inhibitory Concentration (MIC)
[2] = system: Trichophyton interdigitale; test: Antifungal Activity MIC (in medicinal field); settings: read-out: Minimal Inhibitory Concentration (MIC)
[3] = system: Cryptococcus neoformans Cr-1; test: Antifungal Activity MIC (in medicinal field); settings: CR1, read-out: Minimal Inhibitory Concentration (MIC)
Candida albicans GA-24 = test: Antifungal Activity MIC (in medicinal field); settings: GA24, read-out: Minimal Inhibitory Concentration (MIC)
[4] = system: Aspergillus fumigatus Saito; test: Antifungal Activity MIC (in medicinal field); settings: read-out: Minimal Inhibitory Concentration (MIC)
Proteus vulgaris OX-19 = test: Minimal Inhibitory Concentration Method; settings: Proteus vulgaris, OX19, read-out: Minimal Inhibitory Conc.
[5] = system: Escherichia coli NIHJ JC-2; test: Minimal Inhibitory Concentration Method; settings: NIHJJC2, read-out: Minimal Inhibitory Conc.
[6] = system: Klebsiella pneumoniae PCI 602; test: Minimal Inhibitory Concentration Method; settings: PCI602, read-out: Minimal Inhibitory Conc.
[7] = system: Pseudomonas maltiophilia M-0627; test: Minimal Inhibitory Concentration Method; settings: M0627, read-out: Minimal Inhibitory Conc.
[8] = system: Shigella sonnei EW 33 type I; test: Minimal Inhibitory Concentration Method; settings: EW33TYPEI, read-out: Minimal Inhibitory Conc.
Description: (Minimal Inhibitory Concentration Method)
Minimal Inhibitory Conc. (mcg/ml)

[9] = system: Staphylococcus aureus 209P JC-1; test: Minimal Inhibitory Concentration Method; settings: Staphylococcus aureus, 209P, read-out: Minimal Inhibitory Conc.
[10] = system: Bacillus anthracis No. 119; test: microbe, parasite or virus in culture; settings: NO.119, read-out: Minimal Inhibitory Conc.
[11] = system: Serratia marcescens MB-3848; test: Minimal Inhibitory Concentration Method; settings: MB3848; Serratia marcescens MB-3848; read-out: Minimal Inhibitory Conc.
Salmonella typhi 0-901-W = test: Minimal Inhibitory Concentration Method; settings: Salmonella enterica, read-out: Minimal Inhibitory Conc.
[12] = system: Pseudomonas cepacia M-0527; test: Minimal Inhibitory Concentration Method; settings: Burkholderia cepacia, M0527, read-out: Minimal Inhibitory Conc.
Bacillus subtilis = test: Antibacterial activity (Paper-disc method); settings: read-out: Inhibition zone diameter; for zone of inhibition at 250 µg/mL: 250 γ/ml; for zone of inhibition at 500 µg/mL: 500 γ/ml
[13] = system: Staphylococcus aureus 209P; test: Antibacterial activity (Paper-disc method); settings: read-out: Inhibition zone diameter; for zone of inhibition at 250 µg/mL: 250 γ/ml; for zone of inhibition at 500 µg/mL: 500 γ/ml
[14] = system: Escherichia coli NIHJ JC-2; test: Antibacterial activity (Paper-disc method); settings: read-out: Inhibition zone diameter; for zone of inhibition at 250 µg/mL: NIHJJC2, 250 γ/ml; for zone of inhibition at 500 µg/mL: NIHJJC2, 500 γ/ml
Sarcina lutea = test: Antibacterial activity (Paper-disc method); settings: Micrococcus luteus, read-out: Inhibition zone diameter; for zone of inhibition at 250 µg/mL: 250 γ/ml; for zone of inhibition at 500 µg/mL: 500 γ/ml

SMILES	MIC [1] [µg/mL]	MIC [2] [µg/mL]	MIC [3] [µg/mL]	MIC (Candida albicans GA-24) [µg/mL]	MIC [4] [µg/mL]	further results
Cc1nnn(CC#CI)n1 [Compound No. 1, 2-(1'-iodopropyn-3'-yl)-5-methyltetrazole]	3.12 (≈ 12.6 µM)	6.25 (≈ 25.2 µM)	3.12 (≈ 12.6 µM)	6.25 (≈ 25.2 µM)	6.25 (≈ 25.2 µM)	–
Cc1nnnn1CC#CI [Compound No. 2, 1-(1'-Iodopropyn-3'-yl)-5-methyltetrazole]	0.78 (≈ 3.14 µM)	0.78 (≈ 3.14 µM)	0.78 (≈ 3.14 µM)	1.56 (≈ 6.29 µM)	0.75 (≈ 3.02 µM)	–
CCCc1nnn(CC#CI)n1 [Compound No. 5, 2-(1'-iodopropyn-3'-yl)-5-n-propyltetrazole]	0.05 (≈ 0.181 µM)	≤ 0.05	0.78 (≈ 2.83 µM)	0.78 (≈ 2.83 µM)	≤ 0.05	MIC (Proteus vulgaris OX-19): 12.5 µg/mL (≈ 45.3 µM); MIC [5]: 50 µg/mL (≈ 181 µM); MIC [6]: 100 µg/mL (≈ 362 µM); MIC [7]: 25 µg/mL (≈ 90.6 µM); MIC [8]: 6.25 µg/mL (≈ 22.6 µM); MIC [9]: 12.5 µg/mL (≈ 45.3 µM); MIC [10]: 12.5 µg/mL (≈ 45.3 µM); MIC [11]: 25 µg/mL (≈ 90.6 µM); MIC (Salmonella typhi 0-901-W): 25 µg/mL (≈ 90.6 µM); MIC [12]: 100 µg/mL (≈ 362 µM)
CC(C)c1nnn(CC#CI)n1 [Compound No. 7, 2-(1'-iodopropyn-3'-yl)-5-isopropyltetrazole]	≤ 0.05	≤ 0.05	0.78 (≈ 2.83 µM)	≤ 0.05	≤ 0.05	MIC (Proteus vulgaris OX-19): 12.5 µg/mL (≈ 45.3 µM); MIC [5]: 25 µg/mL (≈ 90.6 µM); MIC [6]: 100 µg/mL (≈ 362 µM); MIC [7]: 50 µg/mL (≈ 181 µM); MIC [8]: 6.25 µg/mL (≈ 22.6 µM); MIC [9]: 12.5 µg/mL (≈ 45.3 µM); MIC [10]: 12.5 µg/mL (≈ 45.3 µM); MIC [11]: 25 µg/mL (≈ 90.6 µM); MIC (Salmonella typhi 0-901-W): 25 µg/mL (≈ 90.6 µM); MIC [12]: > 100 µg/mL
CCCCCc1nnn(CC#CI)n1 [Compound No. 17, 2-(1'-iodopropyn-3'-yl)-5-pentyltetrazole]	≤ 0.05	0.09 (≈ 0.296 µM)	3.13 (≈ 10.3 µM)	3.13 (≈ 10.3 µM)	0.39 (≈ 1.28 µM)	–
COc1ccc(-c2nnn(CC#CI)n2)cc1 [Compound No. 24, 2-(1'-Iodopropyn-3'-yl)-5-(p-methoxyphenyl)tetrazole]	≤ 0.05	0.09 (≈ 0.265 µM)	50 (≈ 147 µM)	12.5 (≈ 36.8 µM)	1.56 (≈ 4.59 µM)	–
Clc1ccc(-c2nnn(CC#CI)n2)cc1 [Compound No. 25, 2-(1'-iodopropyn-3'-yl)-5-(p-chlorophenyl)tetrazole]	0.09 (≈ 0.261 µM)	0.39 (≈ 1.13 µM)	–	1.56 (≈ 4.53 µM)	0.39 (≈ 1.13 µM)	zone of inhibition at 250 µg/mL (Bacillus subtilis): 11.2 mm; zone of inhibition at 500 µg/mL (Bacillus subtilis): 11.1 mm; zone of inhibition at 250 µg/mL [13]: 13.2 mm; zone of inhibition at 500 µg/mL [13]: 13.7 mm; zone of inhibition at 250 µg/mL [14]: 13 mm; zone of inhibition at 500 µg/mL [14]: 13 mm; zone of inhibition at 250 µg/mL (Sarcina lutea): 16 mm; zone of inhibition at 500 µg/mL (Sarcina lutea): 15 mm
Clc1ccc(-c2nnnn2CC#CI)cc1 [Compound No. 26, 1-(1'-Iodopropyn-3'-yl)-5-(p-chlorophenyl)tetrazole]	< 0.04	0.19 (≈ 0.551 µM)	0.78 (≈ 2.26 µM)	0.78 (≈ 2.26 µM)	0.78 (≈ 2.26 µM)	–
Clc1cc(Cl)cc(-c2nnn(CC#CI)n2)c1 [Compound No. 30, 2-(1'-Iodopropyn-3'-yl)-5-(3",5"-dichlorophenyl)tetrazole]	0.09 (≈ 0.237 µM)	≤ 0.05	0.78 (≈ 2.06 µM)	0.78 (≈ 2.06 µM)	0.19 (≈ 0.501 µM)	–
Cc1ccc(-c2nnn(CC#CI)n2)cc1 [Compound No. 31, 2-(1'-Iodopropyn-3'-yl)-5-(p-methylphenyl)tetrazole]	0.19 (≈ 0.586 µM)	0.39 (≈ 1.2 µM)	1.56 (≈ 4.81 µM)	0.78 (≈ 2.41 µM)	1.56 (≈ 4.81 µM)	zone of inhibition at 250 µg/mL (Bacillus subtilis): 9.6 mm; zone of inhibition at 500 µg/mL (Bacillus subtilis): 9.6 mm; zone of inhibition at 250 µg/mL [13]: 11.3 mm; zone of inhibition at 500 µg/mL [13]: 11.4 mm; zone of inhibition at 250 µg/mL [14]: 11.4 mm; zone of inhibition at 500 µg/mL [14]: 11.6 mm; zone of inhibition at 250 µg/mL (Sarcina lutea): 12 mm; zone of inhibition at 500 µg/mL (Sarcina lutea): 12 mm
Oc1ccc(-c2nnnn2CC#CI)cc1 [Compound No. 35, 1-(1'-iodopropyn-3'-yl)-5-(p-hydroxyphenyl)tetrazole]	0.1 (≈ 0.307 µM)	0.1 (≈ 0.307 µM)	0.39 (≈ 1.2 µM)	1.56 (≈ 4.78 µM)	100 (≈ 307 µM)	–
